Experimental data from ChEMBL document CHEMBL1146130, “Benzoxazole benzenesulfonamides as allosteric inhibitors of fructose-1,6-bisphosphatase” (Bioorg Med Chem Lett, 2006).

Molecular target: T1, Fructose-1,6-bisphosphatase 1 (Homo sapiens, UniProt P09467)
T1 sequence (P09467 whole entry): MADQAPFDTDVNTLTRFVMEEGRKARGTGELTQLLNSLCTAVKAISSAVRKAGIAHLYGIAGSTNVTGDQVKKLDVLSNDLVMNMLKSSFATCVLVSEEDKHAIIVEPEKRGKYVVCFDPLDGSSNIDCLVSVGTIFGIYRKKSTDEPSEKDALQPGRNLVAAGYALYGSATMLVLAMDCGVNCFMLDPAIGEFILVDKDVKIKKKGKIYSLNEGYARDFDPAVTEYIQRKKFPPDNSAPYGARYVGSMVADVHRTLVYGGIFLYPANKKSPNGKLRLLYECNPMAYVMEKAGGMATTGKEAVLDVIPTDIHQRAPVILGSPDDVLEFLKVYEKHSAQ
Test: Inhibition of human FBPase1
Conditions: not given

| SMILES | IC50 [µM] |
| --- | --- |
| O=S(=O)(Nc1nc2cc(Cl)ccc2o1)c1cccc(-c2ccccc2)c1 | 9.8 |
| O=S(=O)(Nc1nc2cc(Cl)ccc2o1)c1c(Cl)cccc1Cl | > 50 |
| CC(C)(C)c1ccc2oc(NS(=O)(=O)c3cc(Cl)ccc3Cl)nc2c1 | 32 |
| O=S(=O)(Nc1nc2cc(Br)ccc2o1)c1cc(Cl)ccc1Cl | 1.9 |
| Cn1cnc(S(=O)(=O)Nc2nc3cc(Cl)ccc3o2)c1 | 9.4 |
| O=S(=O)(Nc1nc2cc(Cl)ccc2o1)c1ccccc1-n1ccnc1 | 23 |
| COc1cc(-c2ccc(N)cc2)c2oc(NS(=O)(=O)c3cc(Cl)ccc3Cl)nc2c1 | 1.3 |
| O=S(=O)(Nc1nc2cc(Cl)ccc2o1)c1ccccc1Br | 6.5 |
| COc1cc(-c2cccc(O)c2)c2oc(NS(=O)(=O)c3cc(Cl)ccc3Cl)nc2c1 | 1.7 |
| COc1ccc2nc(NS(=O)(=O)c3cc(Cl)ccc3Cl)oc2c1 | 8 |
| O=S(=O)(Nc1nc2c(C3=CCNC=C3)cccc2o1)c1cc(Cl)ccc1Cl | > 50 |
| O=S(=O)(Nc1nc2cc(-c3ccoc3)ccc2o1)c1cc(Cl)ccc1Cl | 4 |
| O=S(=O)(Nc1nc2cc(Cl)ccc2o1)c1cccc(Cl)c1 | 1.3 |
| O=S(=O)(Nc1nc2cc(Cl)ccc2o1)c1ccc2ccccc2c1 | 2.5 |
| O=S(=O)(Nc1nc2cc(Cl)ccc2o1)c1cc(Cl)ccc1Cl | 3.4 |
| Cc1ccc2oc(NS(=O)(=O)c3cc(Cl)ccc3Cl)nc2c1 | 6.4 |
| CC(C)(C)c1ccc(S(=O)(=O)Nc2nc3cc(Cl)ccc3o2)cc1 | 24 |
| N#Cc1ccccc1S(=O)(=O)Nc1nc2cc(Cl)ccc2o1 | 6 |
| O=[N+]([O-])c1cccc(S(=O)(=O)Nc2nc3cc(Cl)ccc3o2)c1 | 1.8 |
| O=S(=O)(Nc1nc2cc(Cl)ccc2o1)c1ccc(OC(F)(F)F)cc1 | 7.8 |

| SMILES | IC50 [µM] |
| --- | --- |
| Cc1ccc(S(=O)(=O)Nc2nc3cc(Cl)ccc3o2)cc1 | 6.2 |
| O=S(=O)(Nc1nc2cc(Cl)ccc2o1)c1ccc2cc3ccccc3cc2c1 | 3.4 |
| CS(=O)(=O)Nc1nc2cc(Cl)ccc2o1 | > 50 |
| COc1cc(-c2cccc(CN)c2)c2oc(NS(=O)(=O)c3cc(Cl)ccc3Cl)nc2c1 | 2.6 |
| O=S(=O)(Nc1nc2c(I)cccc2o1)c1cc(Cl)ccc1Cl | > 50 |
| O=S(=O)(Nc1nc2cc(Cl)ccc2o1)c1ccc(-c2ccccc2)cc1 | 4 |
| O=S(=O)(Nc1nc2cc(Cl)ccc2o1)c1ccccc1 | 7.7 |
| Cc1cccc2oc(NS(=O)(=O)c3cc(Cl)ccc3Cl)nc12 | 55 |
| Cc1ccc2nc(NS(=O)(=O)c3cc(Cl)ccc3Cl)oc2c1 | 10 |
| O=S(=O)(Nc1nc2ccc(Cl)cc2o1)c1cc(Cl)ccc1Cl | 8.1 |
| CC(C)(C)c1ccc(COc2cccc(S(=O)(=O)Nc3nc4cc(Cl)ccc4o3)c2)cc1 | > 50 |
| O=S(=O)(Nc1nc2cc(Cl)ccc2o1)c1ccc(-c2ccoc2)cc1 | 6.7 |
| COc1cc(-c2ccc(O)cc2)c2oc(NS(=O)(=O)c3cc(Cl)ccc3Cl)nc2c1 | 1.8 |
| O=S(=O)(Nc1nc2cc(Cl)ccc2o1)c1ccccc1-c1ccccc1 | 3.8 |
| CCCC(=O)Nc1ccc(S(=O)(=O)Nc2nc3cc(Cl)ccc3o2)cc1 | 12 |
| O=S(=O)(Nc1nc2cc(Cl)ccc2o1)c1cccs1 | 13 |
| O=S(=O)(Nc1nc2cc(Cl)ccc2o1)c1ccc(F)cc1 | 2.8 |
| Cc1cccc(Cl)c1S(=O)(=O)Nc1nc2cc(Cl)ccc2o1 | > 50 |
| CCCCS(=O)(=O)Nc1nc2cc(Cl)ccc2o1 | > 50 |

System: not listed separately
Test: Oral bioavailability in rat at 5 mg/kg, po
Type: ADME, organism-based
Conditions: in vivo

| SMILES | bioavailability [%] |
| --- | --- |
| O=S(=O)(Nc1nc2cc(Cl)ccc2o1)c1ccc2ccccc2c1 | > 100 |

System: not listed separately
Test: Half life in rat at 5 mg/kg, po
Type: ADME, organism-based
Parameters: dose 5 mg/kg, route oral
Conditions: in vivo

| SMILES | half-life [min] |
| --- | --- |
| O=S(=O)(Nc1nc2cc(Cl)ccc2o1)c1ccc2ccccc2c1 | 450 |

System: not listed separately
Test: Plasma clearance in rat at 5 mg/kg
Type: ADME, organism-based
Parameters: dose 5 mg/kg
Conditions: not given

| SMILES | clearance [mL/min/kg] |
| --- | --- |
| O=S(=O)(Nc1nc2cc(Cl)ccc2o1)c1ccc2ccccc2c1 | 0.667 |
